Measurements: patent publication US10414769B2, “5,8-dimethyl-9-phenyl-5,8-dihydro-6H-pyrazolo[3,4-h]quinazolin-2-yl)-(1H-pyrazol-3-yl)-amines as IGF-1R/IR inhibitors” (Boehringer Ingelheim International GmbH, priority 2015, dated 2019)

Key:
CHEK1 (CHK1) = target: T1, CHEK1 (CHK1) (Homo sapiens, UniProt O14757); test: Z'-LYTE kinase selectivity assay CHEK1; assay type: biochemical
T1 construct: purchased Life Technologies P 3040
T1 sequence (O14757 1-476): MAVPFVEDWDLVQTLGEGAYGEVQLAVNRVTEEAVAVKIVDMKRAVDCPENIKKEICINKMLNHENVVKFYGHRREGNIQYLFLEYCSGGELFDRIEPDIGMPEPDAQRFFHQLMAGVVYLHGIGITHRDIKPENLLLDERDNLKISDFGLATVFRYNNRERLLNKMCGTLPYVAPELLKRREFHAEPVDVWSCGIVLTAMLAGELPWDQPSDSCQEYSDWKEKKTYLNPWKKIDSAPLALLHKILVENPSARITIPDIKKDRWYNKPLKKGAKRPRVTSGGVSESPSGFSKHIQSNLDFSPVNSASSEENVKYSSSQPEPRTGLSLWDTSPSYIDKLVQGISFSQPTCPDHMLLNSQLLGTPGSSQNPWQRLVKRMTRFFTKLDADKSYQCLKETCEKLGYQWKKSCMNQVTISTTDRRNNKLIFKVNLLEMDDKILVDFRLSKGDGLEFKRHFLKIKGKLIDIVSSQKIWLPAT
Excerpt: (§1) In order to compare the kinase selectivity of compounds (I) according to the invention with known prior art compounds the commercially provided SelectScreen® Kinase Profiling Service (Z′-LYTE®) was used (Life Technologies GmbH, Darmstadt, Germany) to investigate the ability of the compounds to inhibit a number of different, representatively selected human kinases. Further details regarding this service are available on the Life Technologies website at
(§2) The Z′-LYTE® biochemical assay employs a fluorescence-based, coupled-enzyme format and is based on the differential sensitivity of phosphorylated and non-phosphorylated peptides to proteolytic cleavage. The peptide substrate is labeled with two fluorophores—one at each end—that make up a FRET pair.
(§3) In the primary reaction, the kinase transfers the gamma-phosphate of ATP to a single tyrosine, serine or threonine residue in a synthetic FRET-peptide. In the secondary reaction, a site-specific protease recognizes and cleaves non-phosphorylated FRET-peptides. Phosphorylation of FRET-peptides suppresses cleavage by the Development Reagent. Cleavage disrupts FRET between the donor (i.e., coumarin) and acceptor (i.e., fluorescein) fluorophores on the FRET-peptide, whereas uncleaved, phosphorylated FRET-peptides maintain FRET. A ratiometric method, which calculates the ratio (the Emission Ratio) of donor emission to acceptor emission after excitation of the donor fluorophore at 400 nm, is used to quantitate reaction progress, as shown in the equation below.
(§4) The Test Compounds are screened at 1 μM.
The 2×CHEK1 (CHK1) (# P 3040)/Ser/Thr 19 (Z′-LYTE® Kinase Assay Kit—Ser/Thr 19 Peptide, # PV 4529) mixture is prepared in 50 mM HEPES pH 7.5, 0.01% BRIJ-35, 10 mM MgCl2, 1 mM EGTA. The final 10 μL Kinase Reaction consists of 2.04-35 ng CHEK1 (CHK1) and 2 μM Ser/Thr 19 in 50 mM HEPES pH 7.5, 0.01% BRIJ-35, 10 mM MgCl2. 1 mM EGTA. After the 1 hour Kinase Reaction incubation, 5 μL of a 1:256 dilution of Development Reagent A is added.

EPHB2 = target: T2, EPHB2 (Homo sapiens, UniProt P29323); test: Z'-LYTE kinase selectivity assay EPHB2; assay type: biochemical
T2 construct: purchased Life Technologies PV 3625
T2 sequence (P29323 19-1055): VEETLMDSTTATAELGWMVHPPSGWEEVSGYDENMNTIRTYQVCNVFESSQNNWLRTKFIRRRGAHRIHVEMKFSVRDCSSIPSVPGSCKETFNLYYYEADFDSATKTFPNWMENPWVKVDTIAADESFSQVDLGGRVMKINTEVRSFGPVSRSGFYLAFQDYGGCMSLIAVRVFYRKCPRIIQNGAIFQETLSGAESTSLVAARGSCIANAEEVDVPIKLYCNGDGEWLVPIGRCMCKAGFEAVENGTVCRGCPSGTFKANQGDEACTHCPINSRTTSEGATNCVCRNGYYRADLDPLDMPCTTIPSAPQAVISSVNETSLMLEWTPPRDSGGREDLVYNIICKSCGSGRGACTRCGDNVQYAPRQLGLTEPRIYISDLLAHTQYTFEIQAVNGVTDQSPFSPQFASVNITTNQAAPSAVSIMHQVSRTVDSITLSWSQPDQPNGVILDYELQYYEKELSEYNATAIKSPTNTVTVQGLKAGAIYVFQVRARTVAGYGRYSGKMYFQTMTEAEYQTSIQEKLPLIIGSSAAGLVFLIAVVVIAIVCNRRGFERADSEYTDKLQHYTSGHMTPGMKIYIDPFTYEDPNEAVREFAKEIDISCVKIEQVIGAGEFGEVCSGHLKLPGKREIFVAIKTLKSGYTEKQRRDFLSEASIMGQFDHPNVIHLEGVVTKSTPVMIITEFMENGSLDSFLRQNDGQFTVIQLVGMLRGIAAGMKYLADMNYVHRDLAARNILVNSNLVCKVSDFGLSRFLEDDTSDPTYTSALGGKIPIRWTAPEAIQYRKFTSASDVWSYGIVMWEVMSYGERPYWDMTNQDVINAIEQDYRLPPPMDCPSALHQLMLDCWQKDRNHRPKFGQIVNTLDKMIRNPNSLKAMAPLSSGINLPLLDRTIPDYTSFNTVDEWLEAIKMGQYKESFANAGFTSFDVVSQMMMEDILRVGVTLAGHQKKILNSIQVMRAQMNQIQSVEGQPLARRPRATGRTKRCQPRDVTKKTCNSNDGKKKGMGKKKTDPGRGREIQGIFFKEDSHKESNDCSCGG
Excerpt: as §1, §2, §3, §4
The 2×EPHB2 (# PV 3625)/Tyr 02 (Z′-LYTE® Kinase Assay Kit—Tyrosine 2 Peptide, # PV 3191) mixture is prepared in 50 mM HEPES pH 7.5, 0.01% BRIJ-35, 10 mM MgCl2, 1 mM EGTA. The final 10 μL Kinase Reaction consists of 0.55-36 ng EPHB2 and 2 μM Tyr 02 in 50 mM HEPES pH 7.5, 0.01% BRIJ-35, 10 mM MgCl2, 1 mM EGTA. After the 1 hour Kinase Reaction incubation, 5 μL of a 1:128 dilution of Development Reagent A is added.

inhibition at 1 µM (CHEK1 (CHK1)) | inhibition at 1 µM (EPHB2) | Structure (SMILES)
38% | 82% | CC(O)CN1CCN(CCn2ccc(Nc3ncc4c(n3)-c3c(nn(C)c3-c3ccccc3)C[C@H]4C)n2)CC1 (some centres unmarked) [Compound I-7]
25% | 56% | COCCN1CCN(CCn2ccc(Nc3ncc4c(n3)-c3c(nn(C)c3-c3ccccc3)C[C@H]4C)n2)CC1 [Compound I-11]
31% | 77% | C[C@@H]1Cc2nn(C)c(-c3ccccc3)c2-c2nc(Nc3ccn(CCN4CCN(CC(C)(C)O)CC4)n3)ncc21 [Compound I-3]
11% | 64% | C[C@@H]1Cc2nn(C)c(-c3ccccc3)c2-c2nc(Nc3ccn(CCN4CCN(C)CC4)n3)ncc21 [Compound I-1]
17% | 62% | C[C@@H]1Cc2nn(C)c(-c3ccccc3)c2-c2nc(Nc3ccn(CCN4CCN(CC(=O)OC5CCOCC5)CC4)n3)ncc21 [Compound I-8]
26% | 73% | C[C@@H]1Cc2nn(C)c(-c3ccccc3)c2-c2nc(Nc3ccn(CCN4CCN(CC5CCCO5)CC4)n3)ncc21 (some centres unmarked) [Compound I-9]
23% | 68% | C[C@@H]1Cc2nn(C)c(-c3ccccc3)c2-c2nc(Nc3ccn(CCN4CCOCC4)n3)ncc21 [Compound I-2]
